Measurements as given in patent US8759366B2, “Aminopyrimidines as SYK inhibitors” (Merck Sharp & Dohme Corp., priority 2009, dated 2014).

Molecular target: rhSYK (Homo sapiens (Human), UniProt P43405)
Conditions: read-out: rhSYK activity

Structure (SMILES)	IC50 [nM]
Cc1cc(Nc2ncc(F)cn2)cc(-c2cncs2)c1 [Intermediate 50, 5-Fluoro-N-[3-methyl-5-(1,3-thiazol-5-yl)phenyl]pyrimidin-2-amine]	100 to 1000
CC(C)(c1ncc(-c2cc(Nc3nccc(C(F)(F)F)n3)cc([N+](=O)[O-])c2)s1)S(N)(=O)=O [Example 70, 2-[5-(3-nitro-5-{[4-(trifluoromethyl)pyrimidin-2-yl]amino}phenyl)-1,3-thiazol-2-yl]propane-2-sulfonamide]	100 to 1000
FC(F)(F)c1ccnc(Nc2cc(Br)cc(-c3cncs3)c2)n1 [Intermediate 11, N-[3-bromo-5-(1,3-thiazol-5-yl)phenyl]-4-(trifluoromethyl)pyrimidin-2-amine]	100 to 1000
CCOC(=O)C1CC=C(c2ncc(-c3cc(C)cc(Nc4nccc(C(F)(F)F)n4)c3)s2)CC1 (stereo not shown) [Example 34, ethyl 4-[5-(3-methyl-5-{[4-(trifluoromethyl)pyrimidin-2-yl]amino}phenyl)-1,3-thiazol-2-yl]cyclohex-3-ene-1-carboxylate]	100 to 1000
Cc1cc(Nc2nccc(C(F)(F)F)n2)cc(-c2cnc(C(C)(O)c3ccc(CC(=O)O)cc3)s2)c1 (single isomer, unassigned) [Example 4A-59]	100 to 1000
Cc1cc(Nc2nccc(C(F)(F)F)n2)cc(-c2cnc(C(O)CCc3c[nH]cn3)s2)c1 (stereo not shown) [Example 4A-40, 3-(1H-imidazol-4-yl)-1-[5-(3-methyl-5-{[4-(trifluoromethyl)pyrimidin-2-yl]amino}phenyl)-1,3-thiazol-2-yl]propan-1-ol]	< 100
Cc1cc(Nc2nccc(C(F)(F)F)n2)cc(-c2cnc(C3(C#N)CCC4(CC3)OCCO4)s2)c1 [8-[5-(3-methyl-5-{[4-(trifluoromethyl)pyrimidin-2-yl]amino}phenyl)-1,3-thiazol-2-yl]-1,4-dioxaspiro[4.5]decane-8-carbonitrile]	< 100

The remaining lines, values ahead:

IC50 [nM]	Structure (SMILES)
< 100	Cc1cc(Nc2nccc(C(F)(F)F)n2)cc(-c2cnc(C(C)C)s2)c1 [Example 13, N-{3-methyl-5-[2-(1-methylethyl)-1,3-thiazol-5-yl]phenyl}-4-(trifluoromethyl)pyrimidin-2-amine]
< 100	COC(=O)C1CCC(O)(c2ncc(-c3cc(C)cc(Nc4nccc(C)n4)c3)s2)CC1C(C)C (stereo not shown) [Example 4C-17]
< 100	Cc1cc(Nc2nccc(C)n2)cc(-c2cnc(C3(O)CCC(C(=O)O)[C@@H]4CCCC[C@H]43)s2)c1 (stereo partly shown) [Example 4B-21]
< 100	Cc1cc(Nc2nccc(C(F)(F)F)n2)cc(-c2cnc(C3(O)C4CC5CC3CC(O)(C5)C4)s2)c1 (stereo not shown) [Example 4B-42]
< 100	Cc1cc(Nc2nccc(C(F)(F)F)n2)cc(-c2cnc(C3(O)CN(C(C)(C)C(=O)O)C3)s2)c1 [Example 53(1), 2-{3-Hydroxy-3-[5-(3-methyl-5-{[4-(trifluoromethyl)pyrimidin-2-yl]amino}phenyl)-1,3-thiazol-2-yl]azetidin-1-yl}-2-methylpropanoic acid]
< 100	Cc1cc(Nc2nccc(C(F)(F)F)n2)cc(-c2cnc(C3(O)CCN(C(=O)OC(C)(C)C)CC3)s2)c1 [Example 45, tert-butyl 4-hydroxy-4-[5-(3-methyl-5-{[4-(trifluoromethyl)pyrimidin-2-yl]amino}phenyl)-1,3-thiazol-2-yl]piperidine-1-carboxylate]
< 100	Cc1cc(Nc2nccc(C)n2)cc(-c2cnc(C3(O)CCC(C(=O)O)[C@H]4CCCC[C@@H]43)s2)c1 (stereo partly shown) [Example 4B-23]
< 100	COC(=O)NS(=O)(=O)N1CCC(O)(c2ncc(-c3cc(C)cc(Nc4nccc(OC)n4)c3)s2)CC1 [54(1), Methyl {[4-hydroxy-4-(5-{3-[(4-methoxypyrimidin-2-yl)amino]-5-methylphenyl}-1,3-thiazol-2-yl)piperidin-1-yl]sulfonyl}carbamate]
< 100	Cn1ccc(C(C)(O)c2ncc(-c3cccc(Nc4nccc(C(F)(F)F)n4)c3)s2)c1 (stereo not shown) [Example 4A-16]
